# From patent publication US20110046106A1, “ARYL SULFONAMIDES AS EFFECTIVE ANALGESICS” (BOEHRINGER INGELHEIM INTERNATIONAL GMBH, priority 2008, published 2011)
# Target: T1, rat BK1 receptor (Rattus norvegicus, UniProt P97583)
# T1 construct: expressed in transfected cells
# T1 sequence (P97583 1-337): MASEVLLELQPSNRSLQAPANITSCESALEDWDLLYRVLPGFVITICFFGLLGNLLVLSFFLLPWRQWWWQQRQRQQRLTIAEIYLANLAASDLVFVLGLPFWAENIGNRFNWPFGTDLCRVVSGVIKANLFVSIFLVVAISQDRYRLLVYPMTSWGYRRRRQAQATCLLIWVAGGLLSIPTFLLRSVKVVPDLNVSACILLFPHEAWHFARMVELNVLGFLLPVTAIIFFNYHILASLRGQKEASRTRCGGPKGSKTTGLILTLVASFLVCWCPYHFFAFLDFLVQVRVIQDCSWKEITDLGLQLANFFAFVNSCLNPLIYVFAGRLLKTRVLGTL
# Assay: Bradykinin BK1-receptor binding (radioligand displacement, membranes of CHO cells)
# Settings: membranes of CHO cells stably expressing the rat BK1 receptor; 1 to 5 nM [3H]-kallidin (DesArg10, Leu9); 120 minutes at room temperature
# Experimental: Description of the Method of Bradykinin BK1-Receptor Binding
# CHO cells stably expressing the rat BK1 receptor are cultivated in Dulbecco's modified medium. The medium from confluent cultures is removed and the cells are washed with PBS buffer, scraped off and isolated by centrifugation. The cells are then homogenized in suspension and the homogenate is centrifuged and resuspended. The protein content is determined and the membrane preparation obtained in this manner is then frozen at −80° C.
# After thawing, 200 μl of the homogenate (50 to 100 μg of proteins/assay) are incubated at room temperature with 1 to 5 nM of kallidin (DesArg10, Leu9), [3,4-prolyl-3,43H(N)] and increasing concentrations of the test substance in a total volume of 250 μl for 120 minutes. The incubation is terminated by rapid filtration through GF/B glass fibre filters which had been pretreated with polyethyleneimine (0.3%). The protein-bound radio-activity is measured in a TopCount NXT (Perkin Elmer/Packard). Non-specific binding is defined as radioactivity bound in the presence of 1.0 μM Lys-Des-Arg9-bradykinin. The concentration/binding curve is analysed using a computer-assisted nonlinear curve fitting. The Ki which corresponds to the test substance is determined using the data obtained in this manner.
# It is pointed out that the compounds were selected for their different structural elements and not in order to emphasise specific compounds: […]
row,Compound,Ki
1,COc1cc(C)c(S(=O)(=O)N(C)CCOCC(=O)N(C)[C@@H]2CCN(C3CCN(C4CCOCC4)CC3)C2)c(C)c1 [Example 3],0.0247 µM
2,COc1cc(C)c(S(=O)(=O)N(C)CCOCC(=O)N(C)C[C@@H]2CCN(C(=O)CCN3CCCC3)C2)c(C)c1 [Example 6],0.181 µM
3,COc1cc(C)c(S(=O)(=O)N(C)CCOCC(=O)N(C)[C@@H]2CCN(C3CCN(C4CC4)CC3)C2)c(C)c1 [Example 8],0.0235 µM
